Key:
Assay in all cases: Enzyme Inhibition Assay
Prothrombin = Prothrombin (Homo sapiens, UniProt P00734)
Procedure: (§1) The enzyme activities were determined kinetically as the initial rate of cleavage of a peptide p-nitroanilide. Km for enzyme and substrate was determined using four substrate dilutions. Enzyme was incubated with test compounds for 10 min; the reaction was then started by the addition of the substrate. […] IC50 values for inhibitors were determined from the dose response curve by fitting the data to the Hill equation. Ki,app values were calculated as the IC50/2, with the IC50 value determined at a substrate concentration equal to Km

Serine protease 1 = biological target: T1, Serine protease 1 (Bos taurus, UniProt P00760)
T1 sequence (P00760 whole entry): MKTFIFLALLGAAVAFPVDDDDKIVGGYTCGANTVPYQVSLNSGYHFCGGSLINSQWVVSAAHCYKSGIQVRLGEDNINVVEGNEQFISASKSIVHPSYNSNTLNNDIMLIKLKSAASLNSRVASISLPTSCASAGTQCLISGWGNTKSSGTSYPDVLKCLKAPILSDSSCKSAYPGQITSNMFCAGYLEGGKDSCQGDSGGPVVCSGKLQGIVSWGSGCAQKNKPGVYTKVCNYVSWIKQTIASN
Procedure: as §1

Coagulation factor X = Coagulation factor X (Homo sapiens, UniProt P00742)
Procedure: as §1

Sequence of Coagulation factor X (P00742 41-179 limits assumed): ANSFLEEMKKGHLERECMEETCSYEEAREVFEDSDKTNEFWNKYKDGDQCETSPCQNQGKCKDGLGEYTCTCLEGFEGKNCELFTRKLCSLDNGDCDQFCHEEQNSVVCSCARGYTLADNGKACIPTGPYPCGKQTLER
Sequence of Coagulation factor X (P00742 235-488 limits assumed): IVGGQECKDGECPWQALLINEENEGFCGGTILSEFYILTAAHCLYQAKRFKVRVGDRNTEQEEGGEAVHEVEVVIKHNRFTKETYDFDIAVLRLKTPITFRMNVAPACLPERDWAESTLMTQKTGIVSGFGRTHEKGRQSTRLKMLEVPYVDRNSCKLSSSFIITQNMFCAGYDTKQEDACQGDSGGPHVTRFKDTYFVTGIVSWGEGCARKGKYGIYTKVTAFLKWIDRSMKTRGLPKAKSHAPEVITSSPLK

Ki (Prothrombin) [µM]	Ki (Serine protease 1) [µM]	Ki (Coagulation factor X) [µM]	SMILES
> 5	> 5	–	Cc1ccc(NC(=O)c2sc3ccccc3c2Cl)c(C(=O)Nc2ccc(Cl)cc2)c1 [3-chloro-N-{2-[(4-chlorophenyl)carbamoyl]-4-methylphenyl}-1-benzothiophene-2-carboxamide]
3.2	–	0.0022	CCCN1Cc2sc(C(=O)Nc3ccc(Cl)cc3C(=O)Nc3ccc(Cl)cc3)c(Cl)c2C1 [3-chloro-N-{4-chloro-2-[(4-chlorophenyl)carbamoyl]phenyl}-5-propyl-4H,5H,6H-thieno[2,3-c]pyrrole-2-carboxamide]
–	> 5	–	CN(C)Cc1ccc2c(Cl)c(C(=O)Nc3ccc(Cl)cc3C(=O)Nc3ccc(Cl)cc3)sc2c1 [3-chloro-N-{4-chloro-2-[(4-chlorophenyl)carbamoyl]phenyl}-6-[(dimethylamino)methyl]-1-benzothiophene-2-carboxamide]
–	> 5	–	CN1CCN(Cc2c(C(=O)Nc3ccc(Cl)cc3C(=O)Nc3ccc(Cl)cc3)sc3ccccc23)CC1 [N-{4-chloro-2-[(4-chlorophenyl)carbamoyl]phenyl}-3-[(4-methylpiperazin-1-yl)methyl]-1-benzothiophene-2-carboxamide]
–	> 5	–	CN(C)Cc1c(C(=O)Nc2ccc(Cl)cc2C(=O)Nc2ccc(Cl)cc2)sc2ccccc12 [N-{4-chloro-2-[(4-chlorophenyl)carbamoyl]phenyl}-3-[(dimethylamino)methyl]-1-benzothiophene-2-carboxamide]
–	> 5	–	CCOC(=O)CN(C)Cc1csc(C(=O)Nc2ccc(Cl)cc2C(=O)Nc2ccc(Cl)cc2)c1Cl [ethyl 2-({[4-chloro-5-({4-chloro-2-[(4-chlorophenyl)carbamoyl]phenyl}carbamoyl)thiophen-3-yl]methyl}(methyl)amino)acetate]
–	> 5	–	CN1CCN(Cc2csc(C(=O)Nc3ccc(Cl)cc3C(=O)Nc3ccc(Cl)cc3)c2Cl)CC1 [thiophene-containing non-amidine inhibitor, 31]
